According to ChEMBL document CHEMBL6134928, “Novel Bicyclic DGK Inhibitors for Treating Metastatic Melanoma” (ACS Med Chem Lett, 2025):

biological target: Diacylglycerol kinase alpha (Homo sapiens, UniProt P23743); experiment: Inhibition of recombinant human DGKalpha using DLG as substrate preincubated with compound followed by substrate addition and measured after 90 mins in presence of ATP by ADP-Glo reagent based analysis
Sequence (P23743 whole entry): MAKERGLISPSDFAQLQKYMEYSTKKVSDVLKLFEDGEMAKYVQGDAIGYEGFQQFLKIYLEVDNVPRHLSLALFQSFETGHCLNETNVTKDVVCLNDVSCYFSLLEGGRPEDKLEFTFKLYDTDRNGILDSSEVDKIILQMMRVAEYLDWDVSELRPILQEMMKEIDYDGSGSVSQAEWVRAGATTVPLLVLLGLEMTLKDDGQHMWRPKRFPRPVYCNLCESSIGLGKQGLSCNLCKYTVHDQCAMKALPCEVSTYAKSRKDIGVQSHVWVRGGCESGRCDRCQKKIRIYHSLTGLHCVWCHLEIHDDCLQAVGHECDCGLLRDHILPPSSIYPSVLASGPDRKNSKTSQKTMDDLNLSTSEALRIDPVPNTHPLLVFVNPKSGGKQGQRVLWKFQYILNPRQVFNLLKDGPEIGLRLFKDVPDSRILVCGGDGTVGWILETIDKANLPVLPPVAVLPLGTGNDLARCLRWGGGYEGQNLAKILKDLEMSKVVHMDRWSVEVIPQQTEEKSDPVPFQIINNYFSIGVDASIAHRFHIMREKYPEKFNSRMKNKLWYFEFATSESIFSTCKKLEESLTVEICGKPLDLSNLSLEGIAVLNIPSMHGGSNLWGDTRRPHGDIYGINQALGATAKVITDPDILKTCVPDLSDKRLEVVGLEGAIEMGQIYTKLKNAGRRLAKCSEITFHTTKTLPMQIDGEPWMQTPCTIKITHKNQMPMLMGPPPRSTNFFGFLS

| IC50 | SMILES |
| --- | --- |
| ≤ 10 nM | C[C@@H]1CN(c2nc(=O)n(C)c3c2nnn3C[C@H]2CCCO2)[C@@H](C)CN1C(c1ccc(F)cc1)c1ccc(F)cc1 |
| ≤ 10 nM | C[C@@H]1CN(c2nc(=O)n(C)c3c2cnn3C)[C@@H](C)CN1C(c1ccc(F)cc1)c1ccc(F)cc1 |
| ≤ 10 nM | Cc1nc2c(N3C[C@@H](C)N(C(c4ccc(F)cc4)c4ccc(F)cc4)C[C@@H]3C)nc(=O)[nH]c2n1C[C@@H]1CCCO1 |

Further lines, the molecule ahead of its results:

| SMILES | IC50 |
| --- | --- |
| C[C@@H]1CN(c2nc(=O)n(C)c3c2ncn3CC2(O)CCC2)[C@@H](C)CN1C(c1ccc(Cl)cc1)C1CC(F)(F)C1 (stereo partly specified) | ≤ 10 nM |
| C[C@@H]1CN(c2nc(=O)n(C)c3c2nnn3C[C@H]2CCCO2)[C@@H](C)CN1C(c1ccc(C(F)(F)F)cn1)c1ccc(C(F)(F)F)cn1 | ≤ 10 nM |
| CC[C@@H]1CN(c2nc(=O)n(C)c3c2nc(C)n3C[C@@H]2CCCO2)[C@@H](C)CN1C(c1ccc(C(F)(F)F)cc1)C1CC(F)(F)C1 (stereo partly specified) | ≤ 10 nM |
